Source: PubChem BioAssay (NCI)
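1) Cells in 96-well plates. 2) Compound, 48 h, 5 concentrations. 3) Linear interpolation between surrounding doses. 4) Unreached endpoint = highest concentration. GI50 = concentration required for 50% inhibition of growth. TGI denotes the concentration required for complete inhibition of growth.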

Experiments:
Assay in all cases: growth of human tumour cells (NCI), 48 h
A549 NSCLC = system: A549 NSCLC
CCRF-CEM leukemia = system: CCRF-CEM leukemia
HL-60(TB) leukemia = system: HL-60(TB) leukemia
MCF7 breast = system: MCF7 breast
NCI-H226 lung = system: NCI-H226 lung
OVCAR-4 ovarian = system: OVCAR-4 ovarian
OVCAR-8 ovarian = system: OVCAR-8 ovarian
SK-MEL-2 melanoma = system: SK-MEL-2 melanoma
UACC-257 melanoma = system: UACC-257 melanoma
MDA-MB-435 = system: MDA-MB-435

CCCCCCc1cn([C@H]2C[C@H](O)[C@@H](CO)O2)c(=O)[nH]c1=O
TGI (A549 NSCLC): > 100 µM | TGI (CCRF-CEM leukemia): > 100 µM | TGI (HL-60(TB) leukemia): > 100 µM | TGI (MCF7 breast): > 100 µM | TGI (NCI-H226 lung): > 100 µM | TGI (OVCAR-4 ovarian): > 100 µM | TGI (OVCAR-8 ovarian): > 100 µM | TGI (SK-MEL-2 melanoma): > 100 µM | TGI (UACC-257 melanoma): > 100 µM

C=CCn1c(=O)c2ccccc2[n+]2c(-c3cccc([N+](=O)[O-])c3)csc12
TGI (A549 NSCLC): > 100 µM | TGI (CCRF-CEM leukemia): > 100 µM | TGI (HL-60(TB) leukemia): 58.2 µM | TGI (MCF7 breast): > 100 µM | TGI (MDA-MB-435): > 100 µM | TGI (NCI-H226 lung): > 100 µM | TGI (OVCAR-4 ovarian): > 100 µM | TGI (OVCAR-8 ovarian): > 100 µM | TGI (SK-MEL-2 melanoma): > 100 µM | TGI (UACC-257 melanoma): > 100 µM

CN(C)C=Nc1nncc2n[nH]nc12
TGI (A549 NSCLC): > 100 µM | TGI (CCRF-CEM leukemia): > 100 µM | TGI (HL-60(TB) leukemia): > 100 µM | TGI (MCF7 breast): > 100 µM | TGI (MDA-MB-435): > 100 µM | TGI (NCI-H226 lung): > 100 µM | TGI (OVCAR-8 ovarian): > 100 µM | TGI (SK-MEL-2 melanoma): > 100 µM | TGI (UACC-257 melanoma): > 100 µM

Cc1cccc2c1C(=O)[C@@](C)([C@]1(C)Nc3cccc(C)c3C1=O)N2
TGI (A549 NSCLC): > 100 µM | TGI (CCRF-CEM leukemia): > 100 µM | TGI (HL-60(TB) leukemia): 7.9 µM | TGI (MCF7 breast): > 100 µM | TGI (MDA-MB-435): > 100 µM | TGI (NCI-H226 lung): > 100 µM | TGI (OVCAR-4 ovarian): > 100 µM | TGI (OVCAR-8 ovarian): > 100 µM | TGI (SK-MEL-2 melanoma): > 100 µM | TGI (UACC-257 melanoma): > 100 µM

CCC1CCC2c3c([nH]c4ccccc34)C3C(=O)N(c4ccc(OC)cc4)C(=O)C3C2C1 (stereo unspecified)
TGI (A549 NSCLC): 59.7 µM | TGI (CCRF-CEM leukemia): 26.7 µM | TGI (HL-60(TB) leukemia): 75 µM | TGI (MCF7 breast): > 100 µM | TGI (MDA-MB-435): > 100 µM | TGI (NCI-H226 lung): > 100 µM | TGI (OVCAR-4 ovarian): 36 µM | TGI (OVCAR-8 ovarian): > 100 µM | TGI (UACC-257 melanoma): > 100 µM

O=S(=O)(/N=C1/SC(=Nc2ccccc2)N(c2ccccc2)/C1=N/S(=O)(=O)c1ccccc1)c1ccccc1
TGI (A549 NSCLC): 69 µM | TGI (CCRF-CEM leukemia): 55 µM | TGI (HL-60(TB) leukemia): 45.1 µM | TGI (MCF7 breast): 52.7 µM | TGI (NCI-H226 lung): 45.7 µM | TGI (OVCAR-8 ovarian): 62.6 µM | TGI (SK-MEL-2 melanoma): 45 µM | TGI (UACC-257 melanoma): 43.4 µM

COc1ccc(N2C(=O)/C(=C/c3ccc(N(CCC#N)CCC#N)cc3)N=C2c2ccccc2)c(OC)c1
TGI (CCRF-CEM leukemia): 74.9 µM | TGI (HL-60(TB) leukemia): > 100 µM | TGI (MCF7 breast): > 100 µM | TGI (MDA-MB-435): > 100 µM | TGI (NCI-H226 lung): > 100 µM | TGI (OVCAR-4 ovarian): > 100 µM | TGI (OVCAR-8 ovarian): > 100 µM | TGI (UACC-257 melanoma): > 100 µM

CCOC(=O)c1cn(C)nc1N/C(C)=C\C(=O)c1ccccc1
TGI (A549 NSCLC): > 100 µM | TGI (CCRF-CEM leukemia): > 100 µM | TGI (HL-60(TB) leukemia): > 100 µM | TGI (MCF7 breast): > 100 µM | TGI (MDA-MB-435): > 100 µM | TGI (NCI-H226 lung): > 100 µM | TGI (OVCAR-4 ovarian): > 100 µM | TGI (OVCAR-8 ovarian): > 100 µM | TGI (UACC-257 melanoma): > 100 µM

NC1CCCCC1N.O=S(=O)([O-])CCCN1CCN(CCO)CC1.O=S(=O)([O-])CCCN1CCN(CCO)CC1.[Pt+4]
GI50 (A549 NSCLC): 4.7 µM | TGI (A549 NSCLC): > 100 µM | GI50 (CCRF-CEM leukemia): 2.21 µM | TGI (CCRF-CEM leukemia): > 50.5 µM | GI50 (HL-60(TB) leukemia): 0.132 µM | TGI (HL-60(TB) leukemia): 11.6 µM | GI50 (MCF7 breast): 3.26 µM | TGI (MCF7 breast): > 100 µM | GI50 (NCI-H226 lung): 5.26 µM | TGI (NCI-H226 lung): > 100 µM | GI50 (OVCAR-4 ovarian): 1.63 µM | TGI (OVCAR-4 ovarian): 19.2 µM | GI50 (OVCAR-8 ovarian): 2.78 µM | TGI (OVCAR-8 ovarian): > 100 µM | GI50 (SK-MEL-2 melanoma): 13.1 µM | TGI (SK-MEL-2 melanoma): 23.4 µM | GI50 (UACC-257 melanoma): 5.77 µM | TGI (UACC-257 melanoma): 24 µM

c1ccc(-c2[nH]c(-c3ccccc3)c(-c3cnccn3)c2-c2cnccn2)cc1
TGI (A549 NSCLC): > 100 µM | TGI (CCRF-CEM leukemia): > 100 µM | TGI (HL-60(TB) leukemia): > 100 µM | TGI (NCI-H226 lung): > 100 µM | TGI (OVCAR-4 ovarian): > 100 µM | TGI (OVCAR-8 ovarian): > 100 µM | TGI (SK-MEL-2 melanoma): > 100 µM | TGI (UACC-257 melanoma): > 100 µM

CC(=O)O[C@H]1C(=O)[C@@]2(C)C(C(OC(=O)c3ccccc3)[C@]3(O)CC(OC(=O)C(O)C(NC(=O)c4ccccc4)c4ccc(C)cc4)C(C)=C1C3(C)C)[C@]1(OC(C)=O)CO[C@@H]1C[C@@H]2O (stereo partly specified)
TGI (A549 NSCLC): 21.5 µM | TGI (CCRF-CEM leukemia): 9.81 µM | TGI (HL-60(TB) leukemia): 2.55 µM | TGI (OVCAR-4 ovarian): > 25 µM | TGI (OVCAR-8 ovarian): 1.01 µM | TGI (SK-MEL-2 melanoma): 0.121 µM | TGI (UACC-257 melanoma): > 25 µM

Cc1nn(-c2ccccn2)c2c1C(SC#N)=C(C=O)CC2
TGI (A549 NSCLC): 46 µM | TGI (CCRF-CEM leukemia): 6.43 µM | TGI (HL-60(TB) leukemia): 16 µM | TGI (MCF7 breast): 24.2 µM | TGI (MDA-MB-435): 37.7 µM | TGI (OVCAR-8 ovarian): 30.8 µM | TGI (SK-MEL-2 melanoma): 30.5 µM | TGI (UACC-257 melanoma): 17.8 µM

C=C1C(=O)O[C@H]2C/C(C=O)=C\[C@H]3O[C@H]3/C(COC(=O)C(C)C)=C/CC12 (stereo partly specified)
TGI (A549 NSCLC): 37.3 µM | TGI (CCRF-CEM leukemia): 6.63 µM | TGI (HL-60(TB) leukemia): 5.54 µM | TGI (MCF7 breast): 50 µM | TGI (MDA-MB-435): 18.9 µM | TGI (NCI-H226 lung): 51.1 µM | TGI (OVCAR-8 ovarian): 13.3 µM | TGI (UACC-257 melanoma): 28.4 µM

COc1ccc(NS(=O)c2cccc(C)c2)cc1 (stereo unspecified)
TGI (A549 NSCLC): > 100 µM | TGI (CCRF-CEM leukemia): > 100 µM | TGI (HL-60(TB) leukemia): > 100 µM | TGI (MCF7 breast): > 100 µM | TGI (MDA-MB-435): > 100 µM | TGI (NCI-H226 lung): > 100 µM | TGI (OVCAR-8 ovarian): > 100 µM | TGI (UACC-257 melanoma): > 100 µM

CCOC(=O)c1c(-c2ccc(OC)c(O)c2)c(C#N)c(=S)n(C2OC(CO)C(O)C(O)C2O)c1-c1ccccc1 (stereo unspecified)
TGI (A549 NSCLC): > 100 µM | TGI (CCRF-CEM leukemia): > 100 µM | TGI (MDA-MB-435): > 100 µM | TGI (NCI-H226 lung): > 100 µM | TGI (OVCAR-4 ovarian): > 100 µM | TGI (UACC-257 melanoma): > 100 µM

CC(C)c1nccn1Cc1ccc(Cl)cc1Cl
TGI (A549 NSCLC): > 100 µM | TGI (MCF7 breast): > 100 µM | TGI (MDA-MB-435): > 100 µM | TGI (NCI-H226 lung): 93.5 µM | TGI (OVCAR-4 ovarian): > 100 µM | TGI (OVCAR-8 ovarian): > 100 µM | TGI (SK-MEL-2 melanoma): > 100 µM | TGI (UACC-257 melanoma): 95.9 µM

CC1OC=CC(=O)C1O (stereo unspecified)
TGI (A549 NSCLC): > 100 µM | TGI (CCRF-CEM leukemia): > 100 µM | TGI (HL-60(TB) leukemia): > 100 µM | TGI (OVCAR-4 ovarian): > 100 µM | TGI (OVCAR-8 ovarian): > 100 µM | TGI (SK-MEL-2 melanoma): > 100 µM | TGI (UACC-257 melanoma): > 100 µM

Cc1cccc(C(O)c2cccnc2)c1O (stereo unspecified)
TGI (A549 NSCLC): > 100 µM | TGI (CCRF-CEM leukemia): > 100 µM | TGI (HL-60(TB) leukemia): > 100 µM | TGI (MCF7 breast): > 100 µM | TGI (MDA-MB-435): > 100 µM | TGI (NCI-H226 lung): > 100 µM | TGI (OVCAR-8 ovarian): > 100 µM | TGI (UACC-257 melanoma): > 100 µM

CN(CCN(C)C(=O)CCn1ccc(=O)[nH]c1=O)C(=O)CCn1ccc(=O)[nH]c1=O
TGI (A549 NSCLC): > 100 µM | TGI (CCRF-CEM leukemia): > 100 µM | TGI (HL-60(TB) leukemia): > 100 µM | TGI (NCI-H226 lung): > 100 µM | TGI (OVCAR-4 ovarian): > 100 µM | TGI (OVCAR-8 ovarian): > 100 µM | TGI (SK-MEL-2 melanoma): > 100 µM

O=C(Nc1nc(C23CC4CC(CC(C4)C2)C3)cs1)c1cc2cc([N+](=O)[O-])ccc2oc1=O
TGI (A549 NSCLC): > 100 µM | TGI (CCRF-CEM leukemia): > 100 µM | TGI (HL-60(TB) leukemia): > 100 µM | TGI (MCF7 breast): > 100 µM | TGI (MDA-MB-435): > 100 µM | TGI (NCI-H226 lung): > 100 µM | TGI (OVCAR-4 ovarian): 44.8 µM | TGI (OVCAR-8 ovarian): > 100 µM | TGI (UACC-257 melanoma): > 100 µM

C=C1C(=O)O[C@H]2[C@H]([C@H](C)CCCC(C)=O)O[C@H]([C@@]3(C)CCC(=O)O3)C[C@@H]12
TGI (A549 NSCLC): > 100 µM | TGI (CCRF-CEM leukemia): 83.5 µM | TGI (HL-60(TB) leukemia): > 100 µM | TGI (MDA-MB-435): > 100 µM | TGI (NCI-H226 lung): 80.5 µM | TGI (OVCAR-4 ovarian): > 100 µM | TGI (OVCAR-8 ovarian): > 100 µM | TGI (SK-MEL-2 melanoma): > 100 µM | TGI (UACC-257 melanoma): > 100 µM

CC1(C)N=C(N)N=C(N)N1c1ccc(OCCCOc2ccccc2)c(Cl)c1
TGI (A549 NSCLC): > 100 µM | TGI (CCRF-CEM leukemia): 29.7 µM | TGI (MCF7 breast): 14.8 µM | TGI (NCI-H226 lung): 15.4 µM | TGI (OVCAR-4 ovarian): 14.2 µM | TGI (OVCAR-8 ovarian): 14.5 µM | TGI (SK-MEL-2 melanoma): 16.9 µM | TGI (UACC-257 melanoma): 15.1 µM
